Like-named read-outs stand apart in the source and are kept apart here.
What was measured:
[1] = cited from earlier work
[2] = tested on: Rhesus monkeys; conditions: cited from earlier work
[3] = cited from earlier work; remark: listed apart in the source
[4] = cited from earlier work; remark: listed apart in the source
[5] = cited from earlier work; remark: listed apart in the source
[6] = administered orally; cited from earlier work
[7] = in vivo
Method: It is necessary to combine both the oral dose and the pharmacokinetics data to estimate the target flux of ketorolac. For an oral dosage regimen of ketorolac tromethamine, it is recommended that 10 mg be given every 6 hours as needed for short-term management of moderate to severe pain.

[8] = tested on: patients with coronary heart disease; conditions: single oral dose of 2 mg; cited from earlier work
[9] = oral doses; cited from earlier work
[10] = tested on: rats; conditions: rat, not told; cited from earlier work
[11] = cited from earlier work; remark: listed apart in the source
[12] = cited from earlier work; for Solubilities: saturated
[13] = in vitro skin flux of ketorolac; conditions: Table 5
Method: Generally, the protocol was as follows.
Human cadaver epidermis was removed carefully from dermatoned full thickness skin after the skin had been heated in deionized water at 60° C. for one to two minutes. The stripped epidermis was placed between two polyethylene plastic sheets and refrigerated at -20° C. until use. Discs of the epidermis having a diameter of 5/8" were punched out with a die and tested for leakage by soaking the epidermis in water, then spreading it flat on a plastic sheet, and pressing the top of the epidermis lightly a few times with a piece of laboratory tissue. Leakage of the epidermis was detected by appearance of wet spots on the tissue.
Epidermis discs proving to be free of leaks were placed on top of a receiver cell of a modified Franz vertical diffusion cell assembly, and a donor cell was placed on top of the receiver cell. A small magnetic stir bar was inserted through the sampling port into the donor cell compartment. The diffusion cell assemblies were clamped together and transferred to a skin permeation room (controlled at 32° C.) The receiver cell compartments were filled with 8.0 ml of isotonic phosphate buffer, pH 7.0. […]
The quantity of ketorolac tromethamine in each sample was assayed by HPLC analytical methods.

[14] = tested on: coronary strips; conditions: vasodilation; cited from earlier work

In the case of `O=C(c1ccccc1)c1ccc2n1CC[C@@H]2C(=O)O` [(-)-S isomer], the “analgesic potency relative to (+)-R isomer” value ([1]; A. Guzman et al., 1986) is given as “many times greater analgesic potency”.

For `O=C(c1ccccc1)c1ccc2n1CCC2C(=O)O` (centres unmarked) [Ketorolac tromethamine], the “estimated in vivo skin flux” value ([2]; rhesus monkey) is listed as “very high”, the shelf-life ([3]; aqueous solutions pH 4-8, 25° C.) is listed as “very long shelf-life” and the “aqueous solubility relative to ketorolac” value [3] is listed as “greater aqueous solubility than ketorolac”. The light sensitivity ([3]; decarboxylation, especially in the presence of oxygen) was “light sensitive”, the “stability in aqueous solutions” value ([3]; pH 4-8) was “extremely stable” and the Solubilities ([4]; PG (50%), Oleic acid (50%)) was 110 mg/mL. The Solubilities ([4]; propylene glycol (PG)) was 200 mg/mL, the Solubilities ([4]; water) was 725 mg/mL and the volume of distribution ([5]; in vivo) was 7.7 lit/70 kg. The oral bioavailability ([5]; oral) was 80-100%, the “analgesic potency relative to aspirin” value ([1]; administered orally) was “about 180 times” and the “analgesic potency relative to indomethacin” value ([1]; administered orally) was 3-6 times. For the same molecule, the “analgesic potency relative to naproxen” value ([1]; administered orally) was 25-50 times and the “anti-inflammatory potency relative to indomethacin or naproxen” value [6] was 2-3 times.

In the case of `O=C(c1ccccc1)c1ccc2n1CCC2C(=O)O` (centres unmarked) [Ketorolac], the “time to high Cmax” value ([2]; percutaneous, solution formulations) is given as no more than 8 h, the “enhancement of percutaneous absorption by propylene glycol and linoleic acid, or propylene glycol and oleic acid” value ([2]; solution formulations) is given as “effective” and the “amount to be delivered during a 24 hour period” value [7] is given as 12.5 to 19.2 mg. The total clearance ([5]; in vivo) was 1750 ml/hr/70 kg, the “plasma concentration at 6 hour” value ([5]; oral administration of 10 mg, 6 hour) was 200 to 300 ng/mL and the Cmax ([5]; oral administration of 10 mg) was “about 0.8 μg/ml”.

For `CCOC(=O)[N-]c1cn(N2CCOCC2)n[o+]1` [Molsidomine, N-5-ethoxycarbonyl-3-morpholinosydnonimine], the “duration of anti-anginal effects” value [8] is given as 3 to 5 h, the bioavailability [9] is given as 44% and the estimated flux [10] is given as roughly 399 μg/hr-cm^2. For the same molecule, the pKa ([11]; 25° C.) was 3.34, the t90 ([11]; pH 5-7, 20° C.) was 2.6 years and the solubility ([12]; CHCl3) was “freely soluble”. For the same molecule, the Solubilities ([12]; Glycerin, 25° C.) was 1.80%, the Solubilities ([12]; Glycol salicylate, 25° C.) was 15.1% and the Solubilities ([12]; Isopropyl myristate, 25° C.) was 0.09%. For the same molecule, the Solubilities ([12]; Octyl.decyl oil, 25° C.) was 0.36%, the Solubilities ([12]; Oleic Acid, 25° C.) was 1.37% and the Solubilities ([12]; PEG 400, 25° C.) was 5.23%. For the same molecule, the Solubilities ([12]; Propylene glycol, 25° C.) was 6.37%, the solubility ([12]; dilute HCl, ethanol, ethyl acetate, methanol) was “soluble” and the solubility ([12]; ether, petroleum ether) was “very slightly soluble”. For the same molecule, the solubility ([12]; propylene glycol and a variety of organic solvents) was “soluble” and the solubility ([12]; water, acetone, benzene) was “sparingly soluble”.

For `CC(O)CO` (centres unmarked) [PG, propylene glycol], the “Effect on skin flux (factorial design)” value [13] was 8.72.

In the case of `N#CCN(N=O)N1CCOCC1` [SIN-1A], the “dependence of activity on cysteine” value [14] is listed as “active in both the presence and the absence of cysteine”.

In the case of `O=[N+]([O-])OCC(CO[N+](=O)[O-])O[N+](=O)[O-]` [nitroglycerin], the “dependence of activity on cysteine” value [14] is given as “depends on the presence of cysteine”.

Reference: patent US5962013A, “Monolithic matrix transdermal delivery system for administering molsidomine” (priority 1998, dated 1999)
